For orientation: IC50 means the concentration needed to halve the response being measured.

The first test addresses T1, human 5-HT1A receptors (Homo sapiens, UniProt P08908).
T1 construct: expressed in transfected cells; cell homogenate
T1 sequence (P08908 1-422): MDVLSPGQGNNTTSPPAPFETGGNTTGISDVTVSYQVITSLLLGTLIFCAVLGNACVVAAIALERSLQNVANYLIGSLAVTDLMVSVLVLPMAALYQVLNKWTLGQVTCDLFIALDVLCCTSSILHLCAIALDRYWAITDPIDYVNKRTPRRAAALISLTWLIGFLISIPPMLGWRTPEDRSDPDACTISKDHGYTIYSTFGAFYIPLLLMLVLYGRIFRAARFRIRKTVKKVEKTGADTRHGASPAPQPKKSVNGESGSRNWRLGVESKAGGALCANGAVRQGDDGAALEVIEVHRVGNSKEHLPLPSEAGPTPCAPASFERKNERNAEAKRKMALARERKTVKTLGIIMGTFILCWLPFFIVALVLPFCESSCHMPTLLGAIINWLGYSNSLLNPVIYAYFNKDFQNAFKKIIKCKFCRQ
Description: Inhibition of 3H-5-CT binding to human 5-HT1A receptors.
Conditions: not given
As for the experimental part:
The affinity of the compounds of the invention to 5-HT1A receptors was determined by measuring the inhibition of binding of a radioactive ligand at 5-HT1A receptors as described in the following test:
Inhibition of ^3H-5-CT Binding to Human 5-HT1A Receptors.
By this method the inhibition by drugs of the binding of the 5-HT1A agonist ^3H-5-carboxamido tryptamine (^3H-5-CT) to cloned human 5-HT1A receptors stably expressed in transfected HeLa cells (HA7) (Fargin, A. et al. J. Biol. Chem. 1989, 264, 14848) is determined in vitro. The assay was performed as a modification of the method described by Harrington, M. A. et al. J. Pharmacol. Exp. Ther. 1994, 268, 1098. Human 5-HT1A receptors (40 μg of cell homogenate) were incubated for 15 minutes at 37° C. in 50 mM Tris buffer at pH 7.7 in the presence of ^3H-5-CT. Non-specific binding was determined by including 10 μM of metergoline. The reaction was terminated by rapid filtration through Unifilter GF/B filters on a Tomtec Cell Harvester. Filters were counted in a Packard Top Counter.
Regarding `N#Cc1cccnc1SCCN1CCN(c2cccc3c2OCCO3)CC1` [Compound 2a], the IC50 was less than 300 nM.

The test is the same for the next values; noted with them: cloned human 5-HT1A receptors in HeLa cells (HA7), 15 minutes at 37° C., pH 7.7; read-out: IC50, inhibition of 3H-5-CT binding to human 5-HT1A receptors.
With `Cc1cc(C(F)(F)F)c(C#N)c(SCCN2CCN(c3cccc4c3OCCO4)CC2)n1` [Compound 1b, 2-{2-[4-(2,3-Dihydrobenzo[1,4]dioxin-5-yl)piperazin-1-yl]ethylsulfanyl}-6-methyl-4-trifluoromethylnicotinonitrile], the IC50 was less than 300 nM.

With `Cc1cc(C)c(S(=O)(=O)c2ccccc2)c(SCCN2CCN(c3cccc4c3OCCO4)CC2)n1` [Compound 2l, 2-{3-[4-(2,3-Dihydrobenzo[1,4]dioxin-5-yl)piperazin-1-yl]ethylsulfanyl}-4,6-dimethyl-3-phenylsulfonylpyridine], the IC50 is less than 300 nM.

As for `N#Cc1cccnc1SCCN1CCN(c2cc(Cl)cc3c2OCCN3)CC1` [Compound 2ah, 2-[2-[4-(6-Chloro-2,3-dihydro-1,4-benzoxazin-8-yl)piperazin-1-yl]ethylsulfanyl]nicotinonitrile], the IC50 is less than 300 nM.

For the compound `Cc1cc(Cl)nc(SCCN2CCN(c3cccc4c3OCCO4)CC2)c1C#N` [Compound 2o, 6-Chloro-2-{3-[4-(2,3-dihydrobenzo[1,4]dioxin-5-yl)piperazin-1-yl]ethylsulfanyl}-4-methylnicotinonitrile], the IC50 is less than 300 nM.

For `Cc1cc(C)c(C#N)c(SCCN2CCN(c3cc(Cl)cc4c3OCCN4)CC2)n1` [Compound 2ai, 2-[2-[4-(6-Chloro-2,3-dihydro-1,4-benzoxazin-8-yl)piperazin-1-yl]ethylsulfanyl]-4,6-dimethylnicotinonitrile], the IC50 is less than 300 nM.

As to `Cc1nc(SCCN2CCN(c3ccc(C#N)c4c3OCCO4)CC2)c(C#N)c(C)c1Cl` [Compound 2u, 5-Chloro-2-{3-[4-(8-cyano-2,3-dihydrobenzo[1,4]dioxin-5-yl)piperazin-1-yl]ethylsulfanyl}-4,6-dimethylnicotinonitrile], the IC50 was less than 300 nM.

Consider `Cc1cc(Cl)nc(SCCN2CCN(c3cc(Cl)cc4c3OCCN4)CC2)c1C#N` [Compound 2aj, 6-Chloro-2-[2-[4-(6-chloro-2,3-dihydro-1,4-benzoxazin-8-yl)piperazin-1-yl]ethylsulfanyl]-4-methylnicotinonitrile], for which the IC50 was less than 300 nM.

Regarding `Cc1cc(C)c(C#N)c(SCCN2CCN(c3ccc(C#N)c4c3OCCO4)CC2)n1` [Compound 2s, 2-{3-[4-(8-Cyano-2,3-dihydrobenzo[1,4]dioxin-5-yl)piperazin-1-yl]ethylsulfanyl}-4,6-dimethylnicotinonitrile], the half-inhibitory concentration (IC50) is less than 300 nM.

For the compound `N#Cc1cccnc1SCCN1CCN(c2cc(Cl)cc3c2OCC(=O)N3)CC1` [Compound 2z, 2-[2-[4-(6-Chloro-2,3-dihydro-1,4-benzoxazin-3-on-8-yl)piperazin-1-yl]ethylsulfanyl]nicotinonitrile], the IC50 was less than 300 nM.

For the compound `Cc1cc(N2CCCCC2)nc(SCCN2CCN(c3ccc(C#N)c4c3OCCO4)CC2)c1C#N` [Compound 2c, 2-{2-[4-(8-Cyano-2,3-dihydrobenzo[1,4]dioxin-5-yl)piperazin-1-yl]ethylsulfanyl}-4-methyl-6-(piperidin-1-yl)nicotinonitrile], the IC50 is less than 300 nM.

Consider `Cc1cc(C)c(C#N)c(SCCN2CCN(c3cc(Cl)cc4c3OCC(=O)N4)CC2)n1` [Compound 2aa, 2-[2-[4-(6-Chloro-2,3-dihydro-1,4-benzoxazin-3-on-8-yl)piperazin-1-yl]ethylsulfanyl]-4,6-dimethylnicotinonitrile], for which the IC50 is less than 300 nM.

The next test has as its target T2, cloned 5-HT1A receptors (Homo sapiens, UniProt P08908).
T2 construct: expressed in transfected cells
T2 sequence (P08908 1-422): T1 sequence (P08908 1-422)
Description: 5-HT1A antagonistic activity: antagonism of 5-HT induced inhibition of forskolin induced cAMP accumulation in transfected HeLa cells (HA7). The test is classed as cell-based.
Conditions: not given
As for the experimental part:
The 5-HT1A antagonistic activity of some of the compounds of the invention has been estimated in vitro at cloned 5-HT1A receptors stably expressed in transfected HeLa cells (HA7). In this test, 5-HT1A antagonistic activity is estimated by measuring the ability of the compounds to antagonize the 5-HT induced inhibition of forskolin induced cAMP accumulation. The assay was performed as a modification of the method described by Pauwels, P. J. et al. Biochem. Pharmacol. 1993, 45, 375.
(Changes in cAMP serve as a functional read-out for many G protein-coupled receptors.)
On to `Cc1ccc(C#N)c(SCCN2CCN(c3ccc(C#N)c4c3OCCO4)CC2)n1` [Compound 1e, {2-[4-(8-Cyano-2,3-dihydrobenzo[1,4]dioxin-5-yl)piperazin-1-yl]ethylsulfanyl}-6-methylnicotinonitrile], for which the IC50 is less than 7 µM.

Consider `Cc1cc(C(F)(F)F)c(C#N)c(SCCN2CCN(c3cccc4c3OCCO4)CC2)n1` [Compound 1b, 2-{2-[4-(2,3-Dihydrobenzo[1,4]dioxin-5-yl)piperazin-1-yl]ethylsulfanyl}-6-methyl-4-trifluoromethylnicotinonitrile], for which the IC50 was less than 7 µM.

`N#Cc1ccc(N2CCN(CCCSc3ccc(C(F)(F)F)cn3)CC2)c2c1OCCO2` [Compound 1v, 2-{3-[4-(8-Cyano-2,3-dihydrobenzo[1,4]dioxin-5-yl)piperazin-1-yl]propylsulfanyl}-5-trifluoromethylpyridine] displayed an IC50 of less than 7 µM.
